Laboratory results from PMC9323974, “Palladium(II) Complexes of Substituted Salicylaldehydes: Synthesis, Characterization and Investigation of Their Biological Profile” (Pharmaceuticals, 2022).
“And” between values parts separate entries of the source, which are not always exact repeats. Identical values can stand only once. Like-named read-outs stand apart in the source and are kept apart here.

Legend:
HSA [1] = biological target: T1, HSA (Homo sapiens, UniProt P02768); conditions: cited from earlier work
T1 construct: purchased Sigma-Aldrich Co
T1 sequence (P02768 25-609): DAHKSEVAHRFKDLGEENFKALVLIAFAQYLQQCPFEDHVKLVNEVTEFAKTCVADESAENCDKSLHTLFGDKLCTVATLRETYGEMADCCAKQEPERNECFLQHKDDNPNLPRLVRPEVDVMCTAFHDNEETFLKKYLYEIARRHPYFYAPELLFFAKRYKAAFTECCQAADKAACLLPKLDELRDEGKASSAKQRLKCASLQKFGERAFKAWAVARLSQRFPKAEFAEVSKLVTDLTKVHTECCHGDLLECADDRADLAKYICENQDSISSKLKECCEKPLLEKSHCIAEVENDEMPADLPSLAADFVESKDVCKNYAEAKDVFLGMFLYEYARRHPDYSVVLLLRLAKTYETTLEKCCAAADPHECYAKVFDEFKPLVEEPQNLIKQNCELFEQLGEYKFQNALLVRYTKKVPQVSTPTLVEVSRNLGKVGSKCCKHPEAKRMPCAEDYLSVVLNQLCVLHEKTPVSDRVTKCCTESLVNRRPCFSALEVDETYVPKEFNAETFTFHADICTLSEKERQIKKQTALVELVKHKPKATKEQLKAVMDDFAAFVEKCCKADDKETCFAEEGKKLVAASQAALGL

[2] = cited from earlier work
[3] = cited from earlier work; remark: listed apart in the source
BSA [4] = biological target: T2, BSA (Bos taurus, UniProt P02769); conditions: cited from earlier work
T2 construct: purchased Sigma-Aldrich Co
T2 sequence (P02769 25-607): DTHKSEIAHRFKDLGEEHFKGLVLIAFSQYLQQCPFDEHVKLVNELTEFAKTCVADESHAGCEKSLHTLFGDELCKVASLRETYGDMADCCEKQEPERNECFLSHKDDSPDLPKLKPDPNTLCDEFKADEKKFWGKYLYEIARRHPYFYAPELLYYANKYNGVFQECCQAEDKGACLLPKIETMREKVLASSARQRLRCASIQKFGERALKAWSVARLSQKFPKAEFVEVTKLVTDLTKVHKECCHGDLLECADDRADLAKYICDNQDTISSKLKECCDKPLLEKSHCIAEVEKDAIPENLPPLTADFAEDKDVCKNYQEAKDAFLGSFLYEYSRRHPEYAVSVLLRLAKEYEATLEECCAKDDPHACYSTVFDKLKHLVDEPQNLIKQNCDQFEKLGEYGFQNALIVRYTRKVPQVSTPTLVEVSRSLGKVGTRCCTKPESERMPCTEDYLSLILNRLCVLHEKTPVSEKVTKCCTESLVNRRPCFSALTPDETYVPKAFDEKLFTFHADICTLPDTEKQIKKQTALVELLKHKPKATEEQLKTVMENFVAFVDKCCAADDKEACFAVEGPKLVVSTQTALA

CT DNA = conditions: cited from earlier work
[5] = cited from earlier work; remark: listed apart in the source
EB-DNA adduct (CT DNA) = conditions: cited from earlier work
BSA [6] = biological target: T2, BSA; conditions: cited from earlier work; remark: listed apart in the source
[7] = test system: Bacillus subtilis ATCC 6633; assay: MIC determination; type: cell-based
Method: (§1) S2 Antibacterial activity
(§2) The antimicrobial activity of the compounds was evaluated by determining their respective MIC values towards two Gram–(–) (Escherichia coli NCTC 29212 (E. coli) and Xanthomonas campestris ATCC 1395 (X. campestris)) and two Gram–(+) (Staphylococcus aureus ATCC 6538 (S. aureus) and Bacillus subtilis ATCC 6633 (B. subtilis)) bacterial species. Cultures of these microbial strains were grown on a rich selective agar medium and stored at 4°C. The selective media used were Nutrient Agar or Broth for B. subtilis and S. aureus, Yeast Mold Agar or Broth for X. campestris and Luria Agar or Broth for E. coli. Cells picked from the surface of the stored cultures were used to initiate liquid pre–cultures of the same selective medium at an initial turbidity of roughly 1 McFarland unit. Pre–cultures were incubated for 24 h in a rotary shaking incubator and subsequently they were used to inoculate the test cultures used for the determination of MIC at an initial turbidity of 0.5 McFarland units. The test cultures consisted of Mueller –Hinton broth (Deben Diagnostics Ltd) containing different concentrations of the compounds.
(§3) Different concentrations were achieved as follows: the compounds were freshly dissolved in DMSO to a concentration of 1 mg mL–1 and they were diluted with DMSO, using the method of progressive double dilution. Therefore, working solutions with decreasing concentrations of the compounds under investigation were achieved. The working solutions were subsequently diluted to the final desired concentration by addition to the growth medium at a proportion of 2:98. MIC values were determined as the lowest concentrations of the tested compounds that inhibited visible growth of each respective organism after a 24 h incubation [ S3]. Bacterial growth was determined by measuring the turbidity of appropriately diluted cultures at 600 nm with reference to equally diluted sterile growth medium and the inhibition achieved was calculated by comparing the turbidity of each culture to the average of the turbidity of three non–inhibited cultures. All test cultures were grown in triplicates and for the determination of MIC, growth had to be inhibited in at least two cultures of the triplicate. Incubation temperature at all stages was 37°C except for X. campestris that was cultivated at 28°C [S4].

[8] = test system: Xanthomonas campestris ATCC 1395; assay: MIC determination; type: cell-based; conditions: Xanthomonas campestris, ATCC1395, 24 h, read-out: MIC X. campestris
Method: as §1, §2, §3

[9] = test system: Escherichia coli NCTC 29212; assay: MIC determination; type: cell-based
Method: as §1, §2, §3

[10] = test system: Staphylococcus aureus ATCC 6538; assay: MIC determination; type: cell-based
Method: as §1, §2, §3

HSA [11] = biological target: T1, HSA; conditions: cited from earlier work; remark: listed apart in the source
DPPH radical scavenging = conditions: compound 0.1 mM
Method: (§4) S1 Antioxidant biological assay
The antioxidant activity of the compounds was evaluated via their ability to scavenge in
vitro free radicals such as DPPH and ABTS and to reduce H2O2. All the experiments were carried
S1.1 Determination of the reducing activity of the stable radical DPPH
To an ethanolic solution of DPPH (0.1 mM) an equal volume solution of the compounds
(0.1 mM) in ethanol was added. Absolute ethanol was also used as control solution. The absorbance
at 517 nm was recorded at room temperature after 30 and 60 min, in order to examine the possible
existence of a potential time–dependence of the DPPH radical scavenging activity [S1]. The DPPH–
scavenging activity of the compounds was expressed as the percentage reduction of the absorbance
values of the initial DPPH solution (DPPH%). NDGA and BHT were used as reference compounds. […]

[12] = Reduction of hydrogen peroxide; conditions: compound 0.1 mM
Method: as §4
(§5) The antioxidant activity of the compounds was evaluated via their ability to scavenge in […]
(§6) vitro free radicals such as DPPH and ABTS and to reduce H2O2. […]
S1.3 Reduction of hydrogen peroxide
The ability of the compounds to reduce hydrogen peroxide (H2O2) was estimated according […]
to the method described in the literature [S2]. The reaction mixture contained 20 μL of each of the […]
tested compounds (0.1 mM) and 5 μL H 2O2 solution (40 mM) in phosphate buffer (50 mM, pH 7.4).
The absorbance was measured at 230 nm after 10 min. The antioxidant activity (reduction of […]

[13] = test system: S. aureus, B. subtilis, E. coli, X. campestris; assay: MIC stated for all tested bacterial strains; type: cell-based; conditions: all tested microbes
Method: as §1, §2, §3

[14] = ABTS radical cation scavenging; conditions: compound 0.1 mM
Method: as §4, §5, §6
S1.2 Assay of radical cation ABTS–scavenging activity
The ABTS assay was performed to determine the activity of the compounds to scavenge the […]
radical cation ABTS. Initially, a water solution of ABTS was prepared (2 mM). ABTS radical cation […]
(ABTS+·) was produced by the reaction of ABTS stock solution with potassium persulfate (0.17 […]
mM) and the mixture was stored in the dark at room temperature for 12–16 h before its use. The […]
ABTS was oxidized incompletely because the stoichiometric reaction ratio of ABTS and potassium […]
persulfate is 1:0.5. The absorbance became maximal and stable only after more than 6 h of reaction […]
although the oxidation of the ABTS started immediately. The radical was stable in this form for […]
more than 2 days when allowed to stand in the dark at room temperature. Afterwards, the ABTS+· […]
solution was diluted in ethanol to an absorbance of 0.70 at 734 nm and 10 μL of diluted compounds or standards (0.1 mM) in DMSO were added. The absorbance was recorded out exactly 1 min after […]
initial mixing [S1]. The ABTS radical scavenging activity was expressed as the percentage inhibition of the absorbance of the initial ABTS solution (ABTS%). […]

O=Cc1cc(Br)cc(Br)c1O [3,5-diBr-saloH, 3,5-dibromo-salicylaldehyde]
HSA-binding constant K, Marker: Ibuprofen (HSA [1]): 4.56 (±0.37) × 10^4 M^−1
HSA-binding constant K, No Marker (HSA [1]): 4.04 (±0.30) × 10^5 M^−1
HSA-binding constant K, Marker: Warfarin (HSA [1]): 1.23 (±0.05) × 10^5 M^−1
ABTS% [2]: 16.55 ± 0.31%
DPPH% (30 min) [3]: 7.97 ± 0.53%
DPPH% (60 min) [3]: 10.22 ± 0.30%
BSA-binding constant K, Marker: Ibuprofen (BSA [4]): 7.11 (±0.29) × 10^5 M^−1
BSA-binding constant K, No Marker (BSA [4]): 2.97 (±0.16) × 10^6 M^−1
BSA-binding constant K, Marker: Warfarin (BSA [4]): 2.84 (±0.10) × 10^5 M^−1
Kb (DNA-binding constant) (CT DNA): 3.71 (±0.14) × 10^5 M^−1
H2O2% [5]: 76.05 ± 1.51%
KSV (Stern–Volmer constant), EB-DNA (EB-DNA adduct (CT DNA)): 3.95 (±0.10) × 10^4 M^−1
kq (EB-DNA quenching constant) (EB-DNA adduct (CT DNA)): 1.72 (±0.04) × 10^12 M^−1s^−1
ΔΙ/Ι0 (%) EB-DNA fluorescence quenching (EB-DNA adduct (CT DNA)): 46.6%
K BSA-binding constant (BSA [6]): 2.97 (±0.16) × 10^6 M^−1
kq BSA-quenching constant (BSA [6]): 3.65 (±0.25) × 10^13 M^−1 s^−1
MIC ([7]; Bacillus subtilis, ATCC6633, 24 h, read-out: MIC B. subtilis): 25 µg/mL and 89 µM
MIC [8]: 25 µg/mL and 89 µM
MIC ([9]; Escherichia coli, NCTC29212, 24 h, read-out: MIC E. coli): 50 µg/mL and 179 µM
MIC ([10]; Staphylococcus aureus, ATCC6538, 24 h, read-out: MIC S. aureus): 25 µg/mL and 89 µM
K HSA-binding constant (HSA [11]): 4.04 (±0.30) × 10^5 M^−1
kq HSA-quenching constant (HSA [11]): 1.72 (±0.06) × 10^13 M^−1 s^−1

O=Cc1cc(Cl)cc(Cl)c1O [3,5-diCl-saloH, 3,5-dichloro-salicylaldehyde]
HSA-binding constant K, Marker: Ibuprofen (HSA [1]): 1.87 (±0.08) × 10^5 M^−1
HSA-binding constant K, No Marker (HSA [1]): 6.33 (±0.14) × 10^5 M^−1
HSA-binding constant K, Marker: Warfarin (HSA [1]): 1.52 (±0.07) × 10^5 M^−1
ABTS% [2]: 84.89 ± 0.16%
DPPH% (30 min) [3]: 15.68 ± 0.15%
DPPH% (60 min) [3]: 18.80 ± 0.52%
BSA-binding constant K, Marker: Ibuprofen (BSA [4]): 1.35 (±0.55) × 10^5 M^−1
BSA-binding constant K, No Marker (BSA [4]): 1.64 (±0.10) × 10^6 M^−1
BSA-binding constant K, Marker: Warfarin (BSA [4]): 5.09 (±0.09) × 10^5 M^−1
Kb (DNA-binding constant) (CT DNA): 5.36 (±0.15) × 10^5 M^−1
H2O2% [5]: 79.92 ± 0.34%
KSV (Stern–Volmer constant), EB-DNA (EB-DNA adduct (CT DNA)): 3.56 (±0.09) × 10^4 M^−1
kq (EB-DNA quenching constant) (EB-DNA adduct (CT DNA)): 1.55 (±0.04) × 10^12 M^−1s^−1
ΔΙ/Ι0 (%) EB-DNA fluorescence quenching (EB-DNA adduct (CT DNA)): 43.2%
K BSA-binding constant (BSA [6]): 1.64 (±0.10) × 10^6 M^−1
kq BSA-quenching constant (BSA [6]): 1.47 (±0.09) × 10^13 M^−1 s^−1
MIC ([7]; Bacillus subtilis, ATCC6633, 24 h; read-out: MIC B. subtilis): 50 µg/mL
MIC ([7]; Bacillus subtilis, ATCC6633; 24 h, value in parentheses; read-out: MIC B. subtilis): 262 µM
MIC [8]: 50 µg/mL and 262 µM
MIC ([9]; Escherichia coli, NCTC29212, 24 h; read-out: MIC E. coli): 50 µg/mL
MIC ([9]; Escherichia coli, NCTC29212; 24 h, value in parentheses; read-out: MIC E. coli): 262 µM
MIC ([10]; Staphylococcus aureus, ATCC6538, 24 h; read-out: MIC S. aureus): 50 µg/mL
MIC ([10]; Staphylococcus aureus, ATCC6538; 24 h, value in parentheses; read-out: MIC S. aureus): 262 µM
K HSA-binding constant (HSA [11]): 6.33 (±0.14) × 10^5 M^−1
kq HSA-quenching constant (HSA [11]): 7.11 (±0.32) × 10^12 M^−1 s^−1

Cc1cc(C(C)(C)C)c(O)c(C(C)(C)C)c1 [BHT, butylated hydroxytoluene, reference compound]
DPPH% (30 min) (DPPH radical scavenging): 61.30 ± 1.16%
DPPH% (60 min) (DPPH radical scavenging): 79.78 ± 1.12%

CC[n+]1c(-c2ccccc2)c2cc(N)ccc2c2ccc(N)cc21.[Br-] [EB, 3,8-diamino-5-ethyl-6-phenyl-phenanthridinium bromide]
Kb (DNA-binding constant) (CT DNA; classical intercalator): 1.23 (±0.07) × 10^5 M^−1

O=C1O[C@H]([C@@H](O)CO)C(O)=C1O [L-ascorbic acid, reference compound]
H2O2% [12]: 60.80 ± 0.20%

CC(Cc1ccc(O)c(O)c1)C(C)Cc1ccc(O)c(O)c1 (stereo not shown) [NDGA, nordihydroguaiaretic acid, reference compound]
DPPH% (30 min) (DPPH radical scavenging): 87.08 ± 0.12%
DPPH% (60 min) (DPPH radical scavenging): 87.47 ± 0.12%

CC(=O)[O-].CC(=O)[O-].[Pd+2] [Pd(CH3COO)2]
MIC [13]: > 200 µg/mL

Cc1c(C)c2c(c(C)c1O)CCC(C)(C(=O)O)O2 (stereo not shown) [Trolox, 6-hydroxy-2,5,7,8-tetramethylchromane-2-carboxylic acid, reference compound]
ABTS% [14]: 98.10 ± 0.48%
